Patent EP2177209A1, “Intravenous solutions and uses” (priority 2008, dated 2010)

How the values were obtained:
Neisseria gonorrhoeae = details: 20 library strains
Listeria monocytogenes = details: 20 library strains
[1] = tested on: methicillin-susceptible Staphylococcus epidermidis (MSSE)
Clostridium perfringens = details: 10 library strains
[2] = tested on: methicillin-resistant Staphylococcus epidermidis (MRSE)
Pseudomonas aeruginosa = details: 50 strains
[3] = tested on: methicillin-resistant Staphylococcus aureus (MRSA)
Clostridium difficile = details: 10 library strains
[4] = tested on: Streptococcus constellatus
Bacteroides fragilis = details: 20 library strains
Moraxella catarrhalis = details: 50 strains
Neisseria meningitidis = details: 20 library strains
Haemophilus influenzae = details: 70 strains
Escherichia coli = details: 50 strains
[5] = tested on: methicillin-susceptible Staphylococcus aureus (MSSA)
Helicobacter pylori = details: 5 library strains

CCCCCCCCCC(=O)N[C@@H](Cc1c[nH]c2ccccc12)C(=O)N[C@H](CC(N)=O)C(=O)N[C@@H](CC(=O)O)C(=O)N[C@@H]1C(=O)NCC(=O)N[C@@H](CCCN)C(=O)N[C@@H](CC(=O)O)C(=O)N[C@H](C)C(=O)N[C@@H](CC(=O)O)C(=O)NCC(=O)N[C@H](CO)C(=O)N[C@@H]([C@H](C)CC(=O)O)C(=O)N[C@@H](CC(=O)c2ccccc2N)C(=O)O[C@@H]1C [Daptomycin, daptomycin]
≤0.03 µg/mL: MIC MIN (Streptococcus bovis) | MIC 50% (Group A Streptococci) | MIC MIN (Group A Streptococci) | MIC MIN (Group C Streptococci) | MIC MIN (Streptococcus pneumoniae)
2 µg/mL: MIC 90% (Listeria monocytogenes) | MIC 90% (Clostridium difficile) | MIC MAX (Clostridium difficile) | MIC MIN (Moraxella catarrhalis) | MIC 90% (Streptococcus oralis) | MIC MAX (Streptococcus oralis)
0.015 µg/mL: MIC MIN (Listeria monocytogenes)
0.12 µg/mL: MIC 90% (Streptococcus bovis) | MIC MAX (Streptococcus bovis) | MIC MAX (Group A Streptococci) | MIC MIN (Group B Streptococci) | MIC MIN [3] | MIC MIN (Streptococcus mitis) | MIC MIN (Clostridium difficile) | MIC MIN [4] | MIC 50% (Group C Streptococci) | MIC 50% (Streptococcus pneumoniae)
16 µg/mL: MIC 90% (Moraxella catarrhalis)
≥128 µg/mL: MIC 50% (Neisseria gonorrhoeae) | MIC 90% (Neisseria gonorrhoeae) | MIC MAX (Listeria monocytogenes) | MIC 50% (Pseudomonas aeruginosa) | MIC 90% (Pseudomonas aeruginosa) | MIC MAX (Pseudomonas aeruginosa) | MIC MIN (Pseudomonas aeruginosa) | MIC 50% (Bacteroides fragilis) | MIC 90% (Bacteroides fragilis) | MIC MAX (Bacteroides fragilis) | MIC MIN (Bacteroides fragilis) | MIC MAX (Moraxella catarrhalis) | MIC MAX (Neisseria meningitidis) | MIC 50% (Haemophilus influenzae) | MIC 90% (Haemophilus influenzae) | MIC MAX (Haemophilus influenzae) | MIC MIN (Haemophilus influenzae) | MIC 50% (Escherichia coli) | MIC 90% (Escherichia coli) | MIC MAX (Escherichia coli) | MIC MIN (Escherichia coli) | MIC 50% (Helicobacter pylori) | MIC 90% (Helicobacter pylori) | MIC MAX (Helicobacter pylori) | MIC MIN (Helicobacter pylori)
0.5 µg/mL: MIC 90% [1] | MIC 90% [2] | MIC MAX [2] | MIC 50% (Group B Streptococci) | MIC 90% [3] | MIC 50% (Streptococcus mitis) | MIC 50% [4] | MIC 90% [4] | MIC MAX [4] | MIC 90% (Streptococcus sanguis) | MIC MAX [5] | MIC MAX (Group C Streptococci) | MIC 90% (Streptococcus pneumoniae) | MIC MAX (Streptococcus pneumoniae)
8 µg/mL: MIC 50% (Moraxella catarrhalis) | MIC MIN (Neisseria meningitidis)
0.06 µg/mL: MIC MIN [1] | MIC 50% (Streptococcus bovis) | MIC 90 (Group A Streptococci) | MIC MIN [2] | MIC MIN [5]
64 µg/mL: MIC MIN (Neisseria gonorrhoeae) | MIC 50% (Neisseria meningitidis)
1 µg/mL: MIC 50% (Listeria monocytogenes) | MIC MAX [1] | MIC 50% (Clostridium perfringens) | MIC 90% (Group B Streptococci) | MIC MAX (Group B Streptococci) | MIC MAX [3] | MIC 90% (Streptococcus mitis) | MIC MAX (Streptococcus mitis)
0.25 µg/mL: MIC 50% [1] | MIC 50% [2] | MIC 50% [3] | MIC 50% (Clostridium difficile) | MIC 50% (Streptococcus sanguis) | MIC MIN (Streptococcus oralis) | MIC 50% [5] | MIC 90% [5] | MIC 90% (Group C Streptococci)
